Assays:
Pharmacokinetics in rats = type: in vivo; conditions: rat, plasma
Pan02 allograft = test: Pan02 syngeneic model; type: in vivo, C57BL/6 mice; conditions: 100 mg/kg intraperitoneally three times per five days, 26 days
[1] = molecular target: phosphorylated PAK4 (p-PAK4) (Homo sapiens, UniProt O96013); test: Western blot of PAK4 phosphorylation in MIA PaCa-2 cells; type: cell-based; conditions: for level of p-PAK4: MIA PaCa-2 cells, 1 μmol/L, 72 h
[2] = system: phosphorylated β-Catenin (p-β-Catenin); test: Western blot of β-Catenin phosphorylation in MIA PaCa-2 cells; type: cell-based, human; conditions: for level of p-β-Catenin: MIA PaCa-2 cells, 1 μmol/L, 72 h
MIA PaCa-2 xenograft = conditions: 100 mg/kg q.d. intraperitoneally

Sequence of phosphorylated PAK4 (p-PAK4) (O96013 whole entry): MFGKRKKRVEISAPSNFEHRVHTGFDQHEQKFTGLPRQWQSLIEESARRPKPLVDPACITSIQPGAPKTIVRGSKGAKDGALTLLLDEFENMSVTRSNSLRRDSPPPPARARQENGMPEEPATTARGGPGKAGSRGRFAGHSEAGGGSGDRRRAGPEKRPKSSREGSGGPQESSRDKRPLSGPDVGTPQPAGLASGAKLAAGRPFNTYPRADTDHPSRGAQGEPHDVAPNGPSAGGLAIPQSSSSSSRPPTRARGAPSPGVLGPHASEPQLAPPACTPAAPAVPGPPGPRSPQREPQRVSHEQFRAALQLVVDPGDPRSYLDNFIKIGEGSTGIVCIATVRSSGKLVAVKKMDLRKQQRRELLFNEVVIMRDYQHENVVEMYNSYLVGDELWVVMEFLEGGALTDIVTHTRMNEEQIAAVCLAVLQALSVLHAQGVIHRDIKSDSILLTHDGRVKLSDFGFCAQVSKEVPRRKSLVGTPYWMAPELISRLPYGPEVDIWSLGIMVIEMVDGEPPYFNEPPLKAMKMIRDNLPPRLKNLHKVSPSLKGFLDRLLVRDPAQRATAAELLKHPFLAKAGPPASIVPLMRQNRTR

| SMILES | AUC(0-t) (Pharmacokinetics in rats; iv, 1 mg/kg) | AUC(0-t) (Pharmacokinetics in rats; po, 3 mg/kg) | tumor growth inhibition (Pan02 allograft) | IC50 [1] | IC50 ([2]; Homo sapiens, MIA PaCa-2, 72 h, read-out: IC50 against p-β-Catenin) | mortality (MIA PaCa-2 xenograft; 20-day study) | tumor growth inhibition rate (TGI) (MIA PaCa-2 xenograft; 20 days) | level of p-PAK4 [1] | level of p-β-Catenin [2] |
| --- | --- | --- | --- | --- | --- | --- | --- | --- | --- |
| Nc1ccc(/C=C/C(=O)NCc2cc3cc(-c4ccc(C(=O)N5CCC(F)(F)CC5)cc4)cc(-c4ccc(F)cc4)c3o2)cn1 [Compound 4] | 94400 ng·h/mL | 55500 ng·h/mL | modest tumor growth inhibition | 1890 nM | 2070 nM | two mice | 77.8% | – | – |
| Nc1ccc(/C=C/C(=O)N2CCc3c(oc4c(-c5ccc(F)cc5)cc(-c5ccc(C(=O)N6CCC(F)(F)CC6)nn5)cc34)C2)cn1 [Compound 18, (E)-3-(6-Aminopyridin-3-yl)-1-(6-(6-(4,4-difluoropiperidine-1-carbonyl)pyridazin-3-yl)-8-(4-fluorophenyl)-3,4-dihydrobenzofuro[2,3-c]pyridin-2(1H)-yl)prop-2-en-1-one] | – | – | – | – | – | – | – | superior to 4 | superior to 4 |
| Nc1ccc(/C=C/C(=O)N2CCc3c(oc4c(-c5ccc(F)cc5)cc(-c5ccc(C(=O)N6CCOCC6)nn5)cc34)C2)cn1 [Compound 19, (E)-3-(6-Aminopyridin-3-yl)-1-(8-(4-fluorophenyl)-6-(6-(morpholine-4-carbonyl)pyridazin-3-yl)-3,4-dihydrobenzofuro[2,3-c]pyridin-2(1H)-yl)prop-2-en-1-one] | – | – | – | – | – | – | – | superior to 4 | superior to 4 |

From article PMC11873650 (Acta Pharmaceutica Sinica. B, 2024)
